{
  "source": "patent US12448398B2",
  "about": "“Semi-synthetic analogues of epipolythiodioxopiperazine alkaloids” (Ohio State Innovation Foundation, priority 2019, dated 2025)",
  "key": {"MLL1": {"target": "MLL1 (Homo sapiens, UniProt Q03164)", "sequence (Q15291 whole entry)": "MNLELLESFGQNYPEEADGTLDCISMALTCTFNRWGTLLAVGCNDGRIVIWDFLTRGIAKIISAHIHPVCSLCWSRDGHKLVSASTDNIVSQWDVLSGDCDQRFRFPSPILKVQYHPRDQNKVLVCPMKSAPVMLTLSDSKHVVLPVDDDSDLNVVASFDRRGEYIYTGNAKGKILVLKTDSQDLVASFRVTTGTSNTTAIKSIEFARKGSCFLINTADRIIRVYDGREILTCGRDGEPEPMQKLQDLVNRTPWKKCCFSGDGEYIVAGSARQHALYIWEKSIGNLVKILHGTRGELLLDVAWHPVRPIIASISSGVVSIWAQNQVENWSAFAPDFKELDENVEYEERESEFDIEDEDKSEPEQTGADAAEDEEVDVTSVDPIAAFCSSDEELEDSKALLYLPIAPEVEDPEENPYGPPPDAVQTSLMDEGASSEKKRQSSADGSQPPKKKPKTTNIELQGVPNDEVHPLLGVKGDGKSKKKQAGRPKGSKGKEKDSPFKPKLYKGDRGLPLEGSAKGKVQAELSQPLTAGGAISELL", "sequence (Q9UBL3 96-628, further chain)": "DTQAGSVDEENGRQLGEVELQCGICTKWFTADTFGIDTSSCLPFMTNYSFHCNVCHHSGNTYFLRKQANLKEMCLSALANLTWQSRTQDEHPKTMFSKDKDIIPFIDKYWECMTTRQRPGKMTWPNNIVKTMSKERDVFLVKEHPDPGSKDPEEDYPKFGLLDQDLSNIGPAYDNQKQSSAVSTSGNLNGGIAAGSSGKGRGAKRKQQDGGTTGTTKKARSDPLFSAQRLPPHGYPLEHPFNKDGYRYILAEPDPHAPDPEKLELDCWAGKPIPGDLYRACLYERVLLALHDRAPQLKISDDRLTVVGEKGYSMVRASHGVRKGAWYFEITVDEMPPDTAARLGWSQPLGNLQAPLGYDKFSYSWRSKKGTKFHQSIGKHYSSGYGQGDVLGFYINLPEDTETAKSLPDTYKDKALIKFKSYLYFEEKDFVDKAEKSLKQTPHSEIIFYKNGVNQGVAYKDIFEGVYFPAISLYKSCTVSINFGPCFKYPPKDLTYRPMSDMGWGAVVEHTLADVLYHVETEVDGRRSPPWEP", "sequence (Q03164 3745-3969)": "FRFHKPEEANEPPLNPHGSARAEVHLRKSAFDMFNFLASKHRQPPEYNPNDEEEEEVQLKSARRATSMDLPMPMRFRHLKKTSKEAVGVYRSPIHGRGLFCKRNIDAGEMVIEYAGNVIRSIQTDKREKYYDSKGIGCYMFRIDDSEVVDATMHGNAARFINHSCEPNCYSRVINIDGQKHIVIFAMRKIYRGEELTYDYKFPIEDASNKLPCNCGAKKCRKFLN", "details": "in pancreatic cancer; cited from earlier work"}, "[1]": {"system": "PANC02-H7 or UN-KC-6141 cells", "details": "combination of 3 and anti PD-L1; cited from earlier work"}, "[2]": {"system": "metastatic colon carcinoma", "details": "combined treatment of 3 and 5-fluorouracil; cited from earlier work"}, "[3]": {"system": "panel of cancer cell lines", "details": "cited from earlier work"}, "[4]": {"system": "MDA-MB-435, MDA-MB-231 and OVCAR3 cells", "experiment": "Cytotoxicity assay against a panel of three cancer cell lines (CellTiter 96 AQueous, 72 h)", "type": "cell-based, human", "details": "panel MDA-MB-435, MDA-MB-231, OVCAR3; relative to parent natural product", "method": "(§1) Human melanoma cancer cells (MDA-MB-435), human breast cancer cells (MDA-MB-231) and human ovarian cancer cells (OVCAR3) were obtained from the American Type Culture Collection (Manassas, VA). The cell lines were cultured in RPMI 1640 medium containing fetal 10% bovine serum, 100 unites/mL penicillin and 100 μg/mL streptomycin. The cells were grown at 37° C. under 5% CO2, and then harvested during the log-phase growth by trypsinization followed by two washing to remove all traces of enzymes. Cells were seeded in 96-well clear, flat-bottom plate (Microtest 96, Falcon) at a density of 5000 cells per well. Each plate was incubated overnight at 37° C. under 5% CO2. Samples dissolved in DMSO were diluted and added to the appropriate wells to give final concentrations of 20, 4, 0.8, 0.16, and 0.032 μM for pure compounds, and a total volume of 100 μL and 0.5% DMSO per well. The cells with the test samples were then incubated for 72 h at 37° C. Cell viability was examined using a commercial absorbance assay (CellTiter 96® AQueous One Solution Cell Proliferation Assay, Promega Corp, Madison, WI). IC50 values were determined as the concentration required to diminish cellular growth by 50% compared to the untreated controls after 72 h of continuous exposure. Taxol (Paclitaxel) was used as a positive control.\nHuman melanoma cancer cells (MDA-MB-435), human breast cancer cells (MDA-MB-231) and human ovarian cancer cells (OVCAR3) were produced from the American Type Culture Collection (Manassas, VA). RPMI 1640 medium (fetal 10% bovine serum, 100 unites/mL penicillin and 100 μg/mL streptomycin) was used to culture cell lines. The cells were grown at 37° C. under 5% CO2, then harvested during the log-phase growth by trypsinization followed by two washing to remove all traces of enzymes. 96-well clear, flat-bottom plate (Microtest 96, Falcon) was used to seed the cells at a density of 5000 cells per well. […] Cell viability was examined using a commercial absorbance assay (CellTiter 96® AQueous One Solution Cell Proliferation Assay, Promega Corp, Madison, WI). […]"}, "MDA-MB-231 cells": {"system": "MDA-MB-231 cells", "experiment": "Cytotoxicity assay, human breast cancer cells", "type": "cell-based", "details": "vs verticillin H", "method": "as §1, with “The cells with the test samples were then incubated for 72 h at 37° C.” left out, “IC50 values were determined as the concentration required to diminish cellular growth by 50% compared to the untreated controls after 72 h of continuous exposure. Taxol (Paclitaxel) was used as a positive control.” left out\n(§2) Human melanoma cancer cells (MDA-MB-435), human breast cancer cells (MDA-MB-231) and human ovarian cancer cells (OVCAR3) were produced from the American Type Culture Collection (Manassas, VA). […] Cell viability was examined using a commercial absorbance assay (CellTiter 96® AQueous One Solution Cell Proliferation Assay, Promega Corp, Madison, WI). […]"}, "OVCAR3 cells": {"system": "OVCAR3 cells", "experiment": "Cytotoxicity assay, human ovarian cancer cells", "type": "cell-based", "details": "vs verticillin H", "method": "as §1, with “The cells with the test samples were then incubated for 72 h at 37° C.” left out, “IC50 values were determined as the concentration required to diminish cellular growth by 50% compared to the untreated controls after 72 h of continuous exposure. Taxol (Paclitaxel) was used as a positive control.” left out\nas §2"}},
  "data": [
    {"compound": "CN1C(=O)C23SSC1(C)C(=O)N2C1Nc2ccccc2C1(C12c4ccccc4NC1N1C(=O)C4(C)SSC1(C(=O)N4C)C2O)C3O", "note": "(centres unmarked) [Compound 3, verticillin A]", "values": [
      {"measurement": "IC50", "setting": "MLL1", "value": 0.8, "unit": "µM"},
      {"measurement": "Tumor size", "setting": "[1]", "value": "significantly smaller tumor size"},
      {"measurement": "Tumor size compared to control", "setting": "[2]", "value": "significantly smaller tumors"},
      {"measurement": "Cytotoxicity level, in words", "setting": "[3]", "value": "nanomolar cytotoxicity"}
    ]},
    {"compound": "CCCC(=O)O[C@H]1[C@]2([C@@]34c5ccccc5N[C@@H]3N3C(=O)[C@]5(CC)SS[C@]3(C(=O)N5C)[C@H]4O)c3ccccc3N[C@@H]2N2C(=O)[C@]3(CC)SS[C@]12C(=O)N3C", "note": "[Compound 12]", "values": [
      {"measurement": "Potency compared with the parent compound, in words", "setting": "[4]", "value": "more potent"}
    ]},
    {"compound": "CC[C@@]12SS[C@]3(C(=O)N1C)[C@@H](O)[C@]1([C@@]45c6ccccc6N[C@@H]4N4C(=O)[C@]6(CC)SS[C@]4(C(=O)N6C)[C@H]5OC(=O)C(C)(C)C)c4ccccc4N[C@@H]1N3C2=O", "note": "[Compound 14]", "values": [
      {"measurement": "Potency compared with the parent compound, in words", "setting": "[4]", "value": "more potent"}
    ]},
    {"compound": "CCOC(=O)O[C@H]1[C@]2([C@@]34c5ccccc5N[C@@H]3N3C(=O)[C@]5(CC)SS[C@]3(C(=O)N5C)[C@H]4O)c3ccccc3N[C@@H]2N2C(=O)[C@]3(CC)SS[C@]12C(=O)N3C", "note": "[Compound 16]", "values": [
      {"measurement": "Potency compared with the parent compound, in words", "setting": "[4]", "value": "more potent"},
      {"measurement": "Fold increase of potency relative to parent compound", "setting": "MDA-MB-231 cells", "value": 4.4, "unit": "fold"}
    ]},
    {"compound": "CC[C@@]12SS[C@]3(C(=O)N1C)[C@@H](O)[C@]1([C@@]45c6ccccc6N[C@@H]4N4C(=O)[C@]6(CC)SS[C@]4(C(=O)N6C)[C@H]5OS(=O)(=O)c4ccc(F)cc4)c4ccccc4N[C@@H]1N3C2=O", "note": "[Compound 17]", "values": [
      {"measurement": "Fold loss of potency relative to parent compound", "setting": "MDA-MB-231 cells", "value": 1.6, "unit": "fold"},
      {"measurement": "Fold increase of potency relative to parent compound", "setting": "OVCAR3 cells", "value": 2.9, "unit": "fold"}
    ]},
    {"compound": "CC[C@@]12SS[C@]3(C(=O)N1C)[C@@H](O)[C@]1([C@@]45c6ccccc6N[C@@H]4N4C(=O)[C@]6(CC)SS[C@]4(C(=O)N6C)[C@H]5OC(=O)N(C)C)c4ccccc4N[C@@H]1N3C2=O", "note": "[Compound 19]", "values": [
      {"measurement": "Fold increase of potency relative to parent compound", "setting": "OVCAR3 cells", "value": 12.0, "unit": "fold"}
    ]}
  ]
}
